US4816482A, “Radioprotective agents having an amino-thioalkyl structure” (priority 1983, dated 1989)
Entries after “also recorded” stand apart in the source; their conditions may differ. Where a name gives a salt, the structure may show the parent alone. Read-outs that look alike come from different tables or passages of the source.

Assays:
[1] = system: mice; assay: Radioprotective activity: survival at the 30th day after irradiation; type: in vivo; details: for radioprotective activity (in words): mouse, in vivo; for responders at 600 mg/kg: 600 mg/kg i.p.
Protocol: This study of radioprotective activity was carried out according to a technique described by M. Fatome at al., Eur. J. Med. Chem. 1977, 12, (1), 93. […] This dose is equal to 950 Rad.
More complete studies are recorded in Table II.

[2] = system: mice; assay: Acute toxicity (LD50), i.p.; type: in vivo; details: for toxicity (in words): mouse, in vivo
[3] = Acute toxicity (LD50), i.p.; type: in vivo, mice; details: mouse, in vivo, ip
[4] = system: mice; details: cited from earlier work
[5] = system: EMT 6 tumours; assay: Gain factor (bone marrow FRD/tumour FRD) on EMT 6 tumours; type: in vivo; details: 5×10^-1 survival level
[6] = system: normal tissues / tumours; assay: Selectivity of protection: normal tissues versus tumours; details: EMT6 and HT19 tumours, except if necrotised
[7] = system: bone marrow; assay: FRD on bone marrow; details: in vivo
[8] = Chemical stability; type: physicochemical; details: I 102 compared with WR 2721
[9] = cited from earlier work
[10] = system: normal tissues / tumours; details: literature knowledge; cited from earlier work

## CC(=O)OC(CNC(=O)CN)CSC(C)=O (stereo not drawn) [Example 32, TRIFLUOROACETATE]
[1]; 250 mg/kg, 900 Rad
  survival at 30 days: 70%
[1]; 1,000 mg/kg, 1,100 Rad
  survival at 30 days: 80%
[1]; Mus musculus, light or radiation study, ip, 720 h, Table I, 1,000 mg/kg i.p., 15' before irradiation at 900 or 950 Rad, read-out: % survival at the 30th day
  responders at 1000 mg/kg: 100%
[1]; Mus musculus, light or radiation study, ip, 720 h, Table II, 1,000 mg/kg i.p., 15' before irradiation, 900 Rad, read-out: % survival at 30 days
  responders at 1000 mg/kg: 100%
[1]; Mus musculus, light or radiation study, ip, 720 h, Table II, dose not printed (250 mg/kg in text), 15' before irradiation, 900 Rad, read-out: % survival at 30 days
  responders at 250 mg/kg: 70%
[1]; Mus musculus, light or radiation study, ip, 720 h, Table II, dose not printed (1,000 mg/kg in text), 15' before irradiation, 1,100 Rad, read-out: % survival at 30 days
  responders at 1000 mg/kg: 80%
[2]
  toxicity (in words): low toxicity
[3]
  LD50: > 1500 mg/kg
[3]; Table I
  LD50: 1500 mg/kg
[3]; Table II
  LD50: 1500 mg/kg

## CC(=O)NCCSC(=O)CN.O=C(O)C(F)(F)F [Example 34]
[1]
  radioprotective activity (in words): slight radioprotective action
[2]; Table I
  LD50: 1,000 mg/kg
[3]; Table II
  LD50: 1000 mg/kg

## C[C@H](N)C(=O)NCCSSCCNC(=O)[C@H](C)N.O=C(O)C(F)(F)F.O=C(O)C(F)(F)F [Example 45, N,N'-[…] DI(TRIFLUOROACETATE)]
[1]; Mus musculus, ip, 720 h, read-out: % survival at 30 days, Table II, 4th entry, time and Rad not given
  responders at 600 mg/kg: 50%
[1]; Mus musculus, light or radiation study, ip, 720 h, read-out: % survival at 30 days, Table II, 150 mg/kg i.p., 15' before irradiation, 900 Rad
  responders at 150 mg/kg: 20%
[1]; Mus musculus, light or radiation study, ip, 720 h, read-out: % survival at 30 days, Table II, 2 (hours, cut off) before irradiation, 900 Rad
  responders at 600 mg/kg: 50%
[1]; Mus musculus, light or radiation study, ip, 720 h, read-out: % survival at 30 days, Table II, 15' before irradiation, 900 Rad
  responders at 600 mg/kg: 100%
[1]; Mus musculus, light or radiation study, ip, 720 h, read-out: % survival at the 30th day, Table I, 15' before irradiation at 900 or 950 Rad
  responders at 600 mg/kg: 100%
[1]
  radioprotective activity (in words): good radioprotection
[2]
  toxicity (in words): low toxicity
[3]; Table I
  LD50: 1200 mg/kg
[3]; Table II
  LD50: 1200 mg/kg

## CC(C)(N)CSS(=O)(=O)O [H2 N--(C(CH3)2 --CH2 --S--SO3 H]
[4]; 600 mg/kg, J. R. Piper et al., J. Med. Chem. 1966
  protection (in words): good protection

## CC(=O)SCCNC(=O)CN [I 102, N-glycyl-S-acetylcysteamine]
[5]
  gain factor (bone marrow FRD/tumour FRD): 1.2
[6]
  protection of tumours (in words): does not protect tumours (or protects them to only a small extent)
[7]
  FRD on bone marrow: 1.4
[3]
  LD50: > 1500 mg/kg

## NCCCNCCSP(=O)(O)O [WR 2721]
[8]
  chemical stability (in words): unstable; also recorded: not very stable
[5]
  gain factor (bone marrow FRD/tumour FRD): 1.2
[9]
  solubility in water (in words): high solubility in water
[10]
  selectivity of protection (in words): protecting normal tissues against radiation-induced damage, while allowing solid tumors to bear alone the effect of the radiation; also recorded: concentrates selectively in healthy cells and not in cancer cells; also recorded: concentrating selectively in normal tissues (and not in cancer cells); also recorded: selectively protects normal tissues against radiation-induced damage
[7]
  FRD on bone marrow: 2.7
[2]
  LD50: 950 mg/kg

## NCC(O)CSP(=O)(O)O (stereo not drawn) [WR 77913]
[4]; mice, 400 mg/kg (i.p.) 30 minutes before irradiation of 950, 970 Rad
  survival at 30 days: 100%

## NCCS [cysteamine, β-mercaptoethylamine]
[10]
  selectivity of protection (in words): non-selective protection of the cells

## N[C@@H](CS)C(=O)O [cysteine]
[10]
  selectivity of protection (in words): non-selective protection of the cells
